The test concerns the target T1, human microsomal FMO1 (Homo sapiens, UniProt Q01740).
T1 sequence (Q01740 2-532): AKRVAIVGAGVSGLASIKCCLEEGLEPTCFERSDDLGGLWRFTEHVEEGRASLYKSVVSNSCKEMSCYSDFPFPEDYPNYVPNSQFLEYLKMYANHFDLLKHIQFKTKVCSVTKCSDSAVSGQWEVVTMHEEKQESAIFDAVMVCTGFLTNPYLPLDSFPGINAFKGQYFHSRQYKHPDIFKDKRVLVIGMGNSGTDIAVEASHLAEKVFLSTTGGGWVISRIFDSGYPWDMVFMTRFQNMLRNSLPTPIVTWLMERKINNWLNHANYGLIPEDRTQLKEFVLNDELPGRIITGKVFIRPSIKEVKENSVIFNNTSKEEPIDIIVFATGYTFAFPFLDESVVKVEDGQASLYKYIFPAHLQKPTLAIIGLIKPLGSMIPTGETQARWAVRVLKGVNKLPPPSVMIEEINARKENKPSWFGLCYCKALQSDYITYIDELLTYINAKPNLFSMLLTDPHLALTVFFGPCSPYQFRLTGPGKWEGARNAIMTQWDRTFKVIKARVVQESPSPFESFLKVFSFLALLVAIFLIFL
Kind of test: absorption spectrum. It counts as biochemical. Conditions: PBS; microsomal FMO1 as positive control.

`Cc1cc2nc3c(=O)[nH]c(=O)nc-3n(C[C@H](O)[C@H](O)[C@H](O)COP(=O)(O)OP(=O)(O)OC[C@H]3O[C@@H](n4cnc5c(N)ncnc54)[C@H](O)[C@@H]3O)c2cc1C` [FAD]: the absorption spectrum entry is on record as “FAD bound to human microsomal FMO1 (orange)”.
